Test results from US11028088B2, “Modulators of BTK proteolysis and methods of use” (Yale University, priority 2018, dated 2021).
Entries after “also recorded” stand apart in the source; their conditions may differ.

How the values were obtained:
ERBB3 = ERBB3 (Homo sapiens, UniProt P21860); assay: KINOMEscan competition binding assay, ERBB3; conditions: 1.0 μM
HER3 = molecular target: T1, HER3 (Homo sapiens, UniProt P21860); assay: HER3/ERBB3 degradation (western blot, OVCAR8 cells); format: cell-based
T1 construct: endogenous in cells; host or cells: OVCAR8
In short: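 OVCAR8 cells received PROTAC from a 1000× stock for exposures >16 h, or a 2× stock for shorter ones. Lysates (Tris pH 8.0, deoxycholate, Triton X-100, protease/phosphatase inhibitors), 30 μg protein, were run on SDS-PAGE and immunoblotted overnight at 4 °C with ECL chemiluminescent detection and densitometric quantification.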

T1 sequence (P21860 20-1342): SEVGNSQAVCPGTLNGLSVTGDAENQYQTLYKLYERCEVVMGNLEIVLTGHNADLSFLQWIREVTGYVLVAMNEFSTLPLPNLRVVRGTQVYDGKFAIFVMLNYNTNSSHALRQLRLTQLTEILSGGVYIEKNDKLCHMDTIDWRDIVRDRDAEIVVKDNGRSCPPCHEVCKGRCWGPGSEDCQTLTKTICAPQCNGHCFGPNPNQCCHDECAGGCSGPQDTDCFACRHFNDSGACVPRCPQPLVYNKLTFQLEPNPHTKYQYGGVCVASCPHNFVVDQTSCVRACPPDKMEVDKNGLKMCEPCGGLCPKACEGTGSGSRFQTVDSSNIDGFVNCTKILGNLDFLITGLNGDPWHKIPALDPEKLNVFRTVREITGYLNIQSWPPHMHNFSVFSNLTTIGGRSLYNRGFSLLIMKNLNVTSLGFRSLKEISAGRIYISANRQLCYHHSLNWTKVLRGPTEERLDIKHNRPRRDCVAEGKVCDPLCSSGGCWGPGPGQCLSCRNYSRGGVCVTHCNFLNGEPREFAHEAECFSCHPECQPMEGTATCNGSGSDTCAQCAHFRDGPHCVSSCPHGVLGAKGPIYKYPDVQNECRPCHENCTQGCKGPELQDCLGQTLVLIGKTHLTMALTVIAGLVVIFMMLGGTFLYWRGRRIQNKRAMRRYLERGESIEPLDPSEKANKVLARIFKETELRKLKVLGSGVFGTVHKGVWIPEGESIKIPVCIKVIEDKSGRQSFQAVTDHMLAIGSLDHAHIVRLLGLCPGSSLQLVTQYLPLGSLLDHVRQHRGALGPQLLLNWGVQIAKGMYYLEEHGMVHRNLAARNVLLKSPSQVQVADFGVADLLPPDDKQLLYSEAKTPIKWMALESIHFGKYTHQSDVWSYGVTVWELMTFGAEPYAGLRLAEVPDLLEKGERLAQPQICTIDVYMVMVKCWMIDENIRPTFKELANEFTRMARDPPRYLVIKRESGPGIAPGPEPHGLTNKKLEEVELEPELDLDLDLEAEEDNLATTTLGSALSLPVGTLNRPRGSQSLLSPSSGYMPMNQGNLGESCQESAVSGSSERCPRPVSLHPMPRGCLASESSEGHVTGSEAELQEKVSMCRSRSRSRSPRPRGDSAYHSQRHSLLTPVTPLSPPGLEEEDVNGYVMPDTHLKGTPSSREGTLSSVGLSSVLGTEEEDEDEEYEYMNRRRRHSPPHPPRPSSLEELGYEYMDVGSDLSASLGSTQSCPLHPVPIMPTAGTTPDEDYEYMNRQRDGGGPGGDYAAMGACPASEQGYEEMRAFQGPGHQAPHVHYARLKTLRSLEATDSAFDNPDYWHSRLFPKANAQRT
Chain of ERBB3 (P21860 20-1342): as above

For `Nc1ncnc2c1c(-c1ccc(Oc3ccccc3)cc1)nn2C1CCN(CCOCCOCC(=O)Nc2ccc3c(c2)C(=O)N(C2CCC(=O)NC2=O)C3=O)CC1` (stereo not drawn) [Compound 102, 2-[2-[2-[4-[4-amino-3-(4-phenoxyphenyl)pyrazolo[3,4-d]pyrimidin-1-yl]-1-piperidyl]ethoxy]ethoxy]-N-[2-(2,6-dioxo-3-piperidyl)-1,3-dioxo-isoindolin-5-yl]acetamide], the “KINOMEscan displacement of competitive probe bound to ERBB3” value (ERBB3) was “fully displaced the competitive probe”, the “HER3 Degradation” value (HER3) was “No” and the ERBB3 degradation (HER3; OVCAR8 cells) was “did not lead to ERBB3 degradation; also recorded: no significant degradation”.
